Data as given in US20240156965A1, “DICHALCOGENIDE PRODRUGS” (Ludwig-Maximilians-Universitat Munchen, priority 2021, published 2024).
“Also recorded” adds a separate entry of the source. Each block holds one molecule with its values, some of them ahead of it.

Tests used:
[1] = Challenge with monothiol reductant GSH, cell-free fluorogenic cargo release; assay type: physicochemical; details: 10 μM probe; for sensitivity to GSH in GSH titration, signal F/F^TCEP: 3 h timepoint, GSH up to 10 mM; for resistance to GSH-triggered release of fluorescent cargo PQ-OH (timecourse): supraphysiological GSH 10 mM, TE buffer pH 7.4, 37 °C; for cargo release when challenged with GSH / GSH system reductants: relevant cellular levels
Description: (§1) This cell-free assay examined the stability of dichalcogenide-based reduction-triggered compounds of the invention when exposed to cellular monothiol reductant GSH, and its cellular partner reductants glutathione reductase (GR) and glutaredoxins (Grx1 and Grx2).
(§2) Assay Conditions: A black 96-well plate with black bottom was charged with solutions of fluorophore-releasing reduction-triggered probes that are compounds of the invention (P1, P2, P3, P6 and P7) or that are not compounds of the invention and reveal the performance of prior art systems (disulfide X26), reaching 100 μL final volume, 1% final DMSO, 10 μM probe, aq. TE buffer (pH 7.4), with the indicated concentrations of reductant (in FIG. 1a) or concentration ratios of reductant to probe (in FIG. 1b-d). TCEP (100 μM) was used as a quantitative reference reductant; and in the GR/GSH/Grx assays (FIG. 1c-d), GR was used at 20 nM, GSH at 100 μM, to maintain Grx in a reduced state suitable for challenging the probes without supplying a high concentration of either GSH or GR. Reaction mixtures were incubated at 37° C. for up to 6 h while measuring fluorescence intensity F over time, using a BMG Labtech FLUOstar Omega platereader (λexc=355 nm, λem=530 nm).
(§3) Data Representation: F^TCEP is the maximum possible fluorescence increase, corresponding to complete reduction-triggered cargo release by the TCEP incubation. F/F^TCEP thus gives the fluorescence intensity, as a fraction of the maximum possible fluorescence signal, at the indicated times.

TrxR1 = biological target: T1, TrxR1 (Homo sapiens, UniProt Q16881); test: Cellular quantitative HTS for TrxR1 inhibitors using P6 (LOPAC1280); assay type: cell-based; details: for activity / hit status in cellular P6 screen: hits classed up to 20 μM; for pIC50 comparison between BAY 11-7085 and BAY 11-7082: despite ca. 1.1 Log P difference
T1 construct: endogenous in cells
T1 sequence (Q16881 151-649 limits assumed): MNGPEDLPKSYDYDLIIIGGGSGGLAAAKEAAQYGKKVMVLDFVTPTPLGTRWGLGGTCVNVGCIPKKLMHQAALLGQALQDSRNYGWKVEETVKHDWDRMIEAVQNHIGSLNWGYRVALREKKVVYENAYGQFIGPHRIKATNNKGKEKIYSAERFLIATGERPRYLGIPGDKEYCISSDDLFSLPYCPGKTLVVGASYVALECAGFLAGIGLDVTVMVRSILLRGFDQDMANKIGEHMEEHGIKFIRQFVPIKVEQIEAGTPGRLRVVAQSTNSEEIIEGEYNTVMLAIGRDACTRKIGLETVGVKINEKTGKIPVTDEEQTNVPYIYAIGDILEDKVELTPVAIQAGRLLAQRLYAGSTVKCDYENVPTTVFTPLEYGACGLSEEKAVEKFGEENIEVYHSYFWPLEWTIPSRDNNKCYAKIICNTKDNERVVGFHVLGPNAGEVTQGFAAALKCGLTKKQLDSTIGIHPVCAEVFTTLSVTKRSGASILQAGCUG
Description: The stability and constant environment of P6's signal (crystallising fluorophore, protected from interferences), its low background (ESIPT quenched probe) and low crosstalk (high Stokes shift), and its ability to directly generate a readout, were promising features. We therefore set out to develop the first cellular quantitative HTS (qHTS) assay for TrxR1 inhibitors, using P6, and performing pilot screening with the 1280-compound LOPAC1280 library. LOPAC is intended to cover drugs and drug-like scaffolds with much comparative data on target selectivity, potency, cellular and in vivo bioactivity, without focus on any particular mechanism of action. The LOPAC library was used in the only previously reported qHTS enzymatic TrxR assay (in 2011), and there is 82% overlap in composition between the 2011 and 2021 version (Prast-Nielsen, S. et al., Free Radical Biology and Medicine 50, 1114-1123 (2011)).
Cellular screening using P6, optimized for HTS with 1536-well plates (assay volume 6 μL, 500 cells/well) over 4 h run-time, reproduced the strong performance seen in 96-well format. Untreated vs no-cell controls gave a 7-fold raw signal to background ratio [S:B] without background compensation, with a high Z′ value of 0.64, suitable for HTS (FIG. 5a). P6 signal was linear over the assay time, and linearly reflected turnover rate (varied P6 concentration or cell count; FIG. 5b). Pre-incubating cells for 1 h with reference inhibitors prior to P6 gave concentration-dependent inhibition consistent with reported values (FIG. 5c).
A LOPAC1280 screen using this assay protocol performed well (Z′=0.63, S:B 7:1). Compounds with apparent toxicity within the assay time were excluded by a separate viability counter-assay. Moderate cut-off criteria (IC50<20 μM and curve form) gave a <1.5% hit rate (18 of 1278 compounds, plus TRi-1 and TRi-2; FIG. 5d). […] Matching expectations, with the exception of auranofin, none of these species approached the potency of TRi-1 (Stafford, W. C. et al., Sci. Transl. Med. 10, eaaf7444 (2018)).

TrxR [2] = biological target: T2, TrxR (Rattus norvegicus, UniProt O89049); details: cited from earlier work
T2 sequence (O89049 1-499): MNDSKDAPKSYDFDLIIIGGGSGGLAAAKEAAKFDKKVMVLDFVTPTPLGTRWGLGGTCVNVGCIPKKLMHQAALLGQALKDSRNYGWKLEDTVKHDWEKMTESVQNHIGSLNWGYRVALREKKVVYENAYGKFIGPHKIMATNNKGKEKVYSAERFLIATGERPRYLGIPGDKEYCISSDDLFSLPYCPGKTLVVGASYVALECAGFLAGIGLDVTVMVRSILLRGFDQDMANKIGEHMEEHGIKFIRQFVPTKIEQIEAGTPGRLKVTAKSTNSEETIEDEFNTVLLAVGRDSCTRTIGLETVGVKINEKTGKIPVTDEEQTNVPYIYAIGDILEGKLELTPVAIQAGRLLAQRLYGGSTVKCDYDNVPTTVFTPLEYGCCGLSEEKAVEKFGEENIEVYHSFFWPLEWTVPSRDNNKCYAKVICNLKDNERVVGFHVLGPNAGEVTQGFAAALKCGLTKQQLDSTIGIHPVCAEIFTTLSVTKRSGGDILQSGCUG

TrxR [3] = details: cell-free; cited from earlier work
[4] = system: HeLa cervical cancer cell line; test: Cellular reduction assay in HeLa cells (fluorescence timecourse); assay type: cell-based, human; details: time- and dose-dependence
Description: Assay Conditions: Cells were cultured under standard conditions (Gao, L. et al. Cell Chemical Biology 2021, 28, 1-14. https://doi.org/10.1016/j.chembiol.2020.11.007), left to adhere for 24 h, then compounds were added to 100 μM with 1% vol DMSO. Fluorescence timecourse measurements were acquired as in the chemoreductant assay, with all conditions in triplicates.
Data Representation: F.I.(t) is the fluorescence intensity signal increase as compared to time zero signal (fluorescence intensity immediately following compound addition, before probe activation could occur), in arbitrary units although with the same detection settings for all probes releasing the same cargo. This corresponds to reduction-triggered cargo release.

[5] = system: glutaredoxins (Grx1 and Grx2) with GR and GSH; test: Challenge with GR/GSH/Grx system reductants, cell-free; assay type: biochemical; details: 10 μM probe, GR 20 nM, GSH 100 μM, Grx1 or Grx2 up to physiological concentrations
Description: as §1, §2, §3

[6] = biological target: T3, human recombinant thioredoxin reductase 1 (TrxR1) (Homo sapiens, UniProt Q16881); test: Enzymatic activation assay with TrxR1, cell-free; assay type: biochemical; details: 10 μM probe, 20 nM TrxR1, 100 μM NADPH, 37 °C
T3 sequence (Q16881 1-499 isoform Q16881-5): T1 sequence (Q16881 151-649 limits assumed)
Description: This cell-free assay (see FIG. 2) examined the processing of dichalcogenide-based fluorophore-releasing reduction-triggered probes that are compounds of the invention, by components of the cellular thioredoxin system.
Assay conditions and data representation: A black 96-well plate with black bottom was charged with solutions of probes (P1, P2, P3, P6, P7) to reach final reaction conditions: 100 μL of aq. TE buffer (pH 7.4), 10 μM probe concentration, 1 vol % DMSO, and 20 nM of human recombinant thioredoxin reductase 1 (TrxR1; in FIG. 1a), or 20 nM of either TrxR1 or thioredoxin reductase Sec498Cys mutant (TrxR1 U498C or “mut”; in FIG. 1b), or the indicated probe-to-reductant concentration ratios of TrxR1 (in FIG. 1c) or human recombinant thioredoxin 1 (Trx1; in FIG. 1d); with the final step being the addition of NADPH (100 μM final). The reaction mixtures were incubated at 37° C. for 3 to 6 h as shown with timecourse measurements of fluorescence as for FIG. 1. Data representation as for FIG. 1.

SMILES: CN(C(=O)Oc1ccc(Cl)cc1-c1nc2ccc(Cl)cc2c(=O)[nH]1)C1CCS[Se]C1 (stereo not drawn) [P1]
sensitivity to GSH in GSH titration, signal F/F^TCEP [1]: completely insensitive
resistance to GSH-triggered release of fluorescent cargo PQ-OH (timecourse) [1]: entirely
cargo release when challenged with GSH / GSH system reductants [1]: totally resisted releasing cargo

SMILES: OC[C@H]1O[C@H]([S-])[C@H](O)[C@@H](O)[C@@H]1O.[Au+] [aurothioglucose]
pIC50/potency lower than auranofin (TrxR1; relative to ester prodrug auranofin): 10 fold

SMILES: Oc1ccc2ccccc2c1SSc1c(O)ccc2ccccc12 [IPA-3]
activity / hit status in cellular P6 screen (TrxR1): active in the cellular screen
activity in enzymatic (cell-free) TrxR screen (TrxR [2]): inactivity in the enzymatic assay

SMILES: NC1CC[Se][Se]C1 (stereo not drawn) [E4]
reduction by TrxR in vitro (TrxR [3]): resistant to TrxR

pIC50 comparison between BAY 11-7085 and BAY 11-7082 (TrxR1): no change
SMILES: CC(C)(C)c1ccc(S(=O)(=O)/C=C/C#N)cc1 [BAY 11-7085]

SMILES: COC[C@H]1OC(=O)c2coc3c2[C@@]1(C)C1=C(C3=O)[C@@H]2CCC(=O)[C@@]2(C)C[C@H]1OC(C)=O [wortmannin]
activity in enzymatic (cell-free) TrxR screen (TrxR [2]): activity in the enzymatic screen

activity / hit status in cellular P6 screen (TrxR1): non-obvious hit
SMILES: NC1(C(=O)O)CCc2cc(C(=O)O)ccc21 (stereo not drawn) [AIDA]

SMILES: CN1CCN(C(=O)CCN(C(=O)Oc2ccc(Cl)cc2-c2nc3ccc(Cl)cc3c(=O)[nH]2)C2CCCCC2)CC1 [X28, reference compound]
fluorescence signal generation F.I.(t) in HeLa cells [4]: does not generate signal; also recorded: did not generate signal

SMILES: OC1C[Se][Se]CC1O (stereo not drawn) [E3]
reduction by TrxR in vitro (TrxR [3]): processed by TrxR

SMILES: C=CCN1CCc2c(cc(O)c(O)c2Cl)C(c2ccccc2)C1 (stereo not drawn) [chloro-APB]
activity / hit status in cellular P6 screen (TrxR1): active in the cellular screen
activity in enzymatic (cell-free) TrxR screen (TrxR [2]): inactivity in the enzymatic assay

SMILES: CN(N=O)c1cc(O)ccc1O [Dephostatin]
ratio of cell-free to cellular potency (potency loss in cells) (TrxR1; shared hits of cellular and cell-free qHTS): > 10 fold

SMILES: CN(C(=O)Oc1ccc(Cl)cc1-c1nc2ccc(Cl)cc2c(=O)[nH]1)C1CC[Se]SC1 (stereo not drawn) [P2]
triggering by GR/GSH/Grx systems [5]: total resistance to Grx challenge
sensitivity to GSH in GSH titration, signal F/F^TCEP [1]: very low sensitivity
resistance to GSH-triggered release of fluorescent cargo PQ-OH (timecourse) [1]: majorly
cargo release when challenged with GSH / GSH system reductants [1]: high resistance to GSH challenge

SMILES: CN(C(=O)Oc1ccc(Cl)cc1-c1nc2ccc(Cl)cc2c(=O)[nH]1)C1CC[Se][Se]C1 (stereo not drawn) [P3]
sensitivity to GSH in GSH titration, signal F/F^TCEP [1]: completely insensitive
resistance to GSH-triggered release of fluorescent cargo PQ-OH (timecourse) [1]: entirely
cargo release when challenged with GSH / GSH system reductants [1]: totally resisted releasing cargo
cargo release on exposure to TrxR1 (timecourse) [6]: stable to this challenge; also recorded: nonresponsive to TrxR

pIC50 comparison between BAY 11-7085 and BAY 11-7082 (TrxR1): no change
SMILES: Cc1ccc(S(=O)(=O)/C=C/C#N)cc1 [BAY 11-7082]
